Assay results: patent US20210015874A1, “USE OF BIO-TRANSFORMED BEAR BILE POWDER IN PREPARATION OF ANTI-INFLAMMATORY DRUGS” (SHANGHAI KAIBAO PHARMACEUTICAL CO., LTD., priority 2019, published 2021)

Tested on: carrageenan-induced inflammation model
Test: plantar swelling of carrageenan-induced inflammation model in rats
Assay type: in vivo, SD rats
Settings: intragastric once, 0.007 g/kg
Protocol: Animal germline: specific pathogen-free (SPF) male SD rats, aged 6-week-old, weighing between 132 g and 199 g when received, and weighing between 152 g and 225 g when drugs are administered to rats, were purchased from Hunan Slake Jingda laboratory Animal Co., Ltd. The laboratory animal production license: SCXK (Xiang) 2016-0002 (valid until Sep. 29, 2021), issued by China Hunan Provincial Science & Technology Department. The laboratory animal quality certificate No.: 43004700060779.
Method for grouping animals: after the quarantine was over, rats that have passed the quarantine inspection were selected for experiments. Groups were randomly assigned on the basis of body weight and divided into 9 groups with 10 rats per group. The 9 groups were as follows: a negative control group, a model group, a group of rats treated with low-dose bio-transformed bear bile powder, a group of rats treated with middle-dose bio-transformed bear bile powder, a group of rats treated with high-dose bio-transformed bear bile powder, a group of rats treated with low-dose natural bear bile powder, a group of rats treated with middle-dose natural bear bile powder, a group of rats treated with high-dose natural bear bile powder, and a positive control group.
Dose and group design for the experiment: a total of 9 groups are contemplated, that is, negative control group (blank control group), a model group, a group of rats treated with low-dose bio-transformed bear bile powder, a group of rats treated with middle-dose bio-transformed bear bile powder, a group of rats treated with high-dose bio-transformed bear bile powder, a group of rats treated with low-dose natural bear bile powder, a group of rats treated with middle-dose natural bear bile powder, a group of rats treated with high-dose natural bear bile powder, and a positive control group (a group of rats treated with indomethacin).
Administration route, administration frequency, and administration period of the test substance and the control: each of them was administered intragastrically, the administration volume was 10 mL/kg, and each group was administered once.
Experimental method: SD male rats that had passed the quarantine inspection were selected for experiments. Groups were divided into 9 groups with 10 male rats per group. The 9 groups were as follows: a negative control group, a model group, a group of rats treated with low-dose bio-transformed bear bile powder, a group of rats treated with middle-dose bio-transformed bear bile powder, a group of rats treated with high-dose bio-transformed bear bile powder, a group of rats treated with low-dose natural bear bile powder, a group of rats treated with middle-dose natural bear bile powder, a group of rats treated with high-dose natural bear bile powder, and a positive control indomethacin group. Before molding, each animal was scored at the ankle joint of the right hind foot, and the volume of the right hind foot was measured with a plantar volume measuring instrument, and it was measured continuously 2 times, wherein the average value obtained from the two measurements was taken as a base volume.
Except for the blank control group, the animals in the remaining groups were injected with 1% by weight of carrageenan suspension at the right hind foot metatarsal palmar fascia, the volume for each rat was 0.1 mL; animals in the blank control group were injected with an equal volume of normal saline; corresponding drugs were administered intragastrically immediately after an injection of carrageenan. The plantar volume of the right hind foot of each group of animals was measured at 1 h, 2 h, 3 h, 4 h, 5 h, and 6 h after injection, and was measured twice consecutively, and the average value obtained from the two measurements was taken as the plantar volume after modeling. The plantar swelling and the plantar swelling inhibition rate were calculated according to the plantar volume measured at different time points after inflammation was induced. […]

Compound: COc1ccc2c(c1)c(CC(=O)O)c(C)n2C(=O)c1ccc(Cl)cc1 [Positive control, indomethacin]
- Plantar swelling 1 h (1 h after carrageenan): 0.21 ± 0.14 mL
- Plantar swelling 2 h (2 h after carrageenan): 0.25 ± 0.16 mL
- Plantar swelling 3 h (3 h after carrageenan): 0.29 ± 0.15 mL
- Plantar swelling 4 h (4 h after carrageenan): 0.15 ± 0.12 mL
- Plantar swelling 5 h (5 h after carrageenan): 0.19 ± 0.09 mL
- Plantar swelling 6 h (6 h after carrageenan): 0.17 ± 0.10 mL
